The test system of the data set is Vero. Kind of data set: Cytotoxicity against african green monkey Vero cells after 24 hrs measured per 5x10^5 cells by neutral red uptake assay. Conditions: chlorocebus sabaeus. It counts as cell-based.

For `CO[C@@H]1[C@@H](O)[C@H](OCC[C@@H](/C=C/[C@@H](C)[C@H]2[C@@H](O)[C@@H](O)[C@@H]3[C@]2(C)CC[C@@H]2[C@@]4(C)CC[C@H](O)[C@H](O)[C@@H]4[C@@H](O)C[C@]23O)C(C)C)OC[C@H]1O[C@@H]1OC[C@H](O)[C@H](O)[C@H]1O` [MONILOSIDE F], the Activity turned out to be 10 µg. In the case of `CO[C@@H]1[C@@H](O)[C@H](O[C@@H]2CO[C@@H](O[C@@H]3CO[C@@H](OCC[C@@H](/C=C/[C@@H](C)[C@H]4[C@@H](O)[C@@H](O)[C@@H]5[C@]4(C)CC[C@@H]4[C@@]6(C)CC[C@H](O)[C@H](O)[C@@H]6[C@@H](O)C[C@]45O)C(C)C)[C@H](O)[C@H]3O)[C@H](O)[C@H]2OC)OC[C@H]1O` it was 10 µg; in that of `CO[C@H]1[C@H](O[C@H]2CC[C@]3(C)C4=CC[C@]5(C)[C@@H]([C@H](C)CC[C@H](O)C(C)C)C[C@@H](O)[C@H]5C4=CC[C@H]3[C@H]2O)OC[C@@H](O)[C@@H]1O` [MONILOSIDE B], 3 µg; in that of `CO[C@@H]1[C@@H](O)[C@H](O[C@@H]2CO[C@@H](O[C@@H]3CO[C@@H](OCC[C@@H](CC[C@@H](C)[C@H]4[C@@H](O)[C@@H](O)[C@@H]5[C@]4(C)CC[C@@H]4[C@@]6(C)CC[C@H](O)[C@H](O)[C@@H]6[C@@H](O)C[C@]45O)C(C)C)[C@H](O)[C@H]3O)[C@H](O)[C@H]2O)OC[C@H]1O` [MONILOSIDE I], 1 µg. `CO[C@H]1[C@H](O[C@H]2CC[C@]3(C)C4=CC[C@]5(C)[C@@H]([C@H](C)CC[C@H](O)C(C)C)C[C@@H](O)[C@H]5C4=CC[C@H]3C2)OC[C@@H](O)[C@@H]1O` [MONILOSIDE A]: the Activity amounted to 3 µg. In turn, `CO[C@H]1[C@H](O[C@H]2CC[C@@]3(C)[C@H]([C@H]2O)[C@H](O)C[C@]2(O)[C@@H]3CC[C@]3(C)[C@@H]([C@H](C)CC[C@H](O)C(C)C)C[C@@H](O)[C@H]32)OC[C@@H](O)[C@@H]1O` [MONILOSIDE D] came in with an Activity of 3 µg. To `CO[C@@H]1[C@@H](O)[C@H](OCC[C@@H](CC[C@@H](C)[C@H]2[C@@H](O)[C@@H](O)[C@@H]3[C@]2(C)CC[C@@H]2[C@@]4(C)CC[C@H](O)[C@H](O)[C@@H]4[C@@H](O)C[C@]23O)C(C)C)OC[C@H]1O[C@@H]1OC[C@H](O)[C@H](O)[C@H]1O` [MONILOSIDE E] belongs 10 µg; to `CO[C@@H]1[C@@H](O)[C@H](O[C@@H]2CO[C@@H](O[C@@H]3CO[C@@H](OCC[C@@H](CC[C@@H](C)[C@H]4[C@@H](O)[C@@H](O)[C@@H]5[C@]4(C)CC[C@@H]4[C@@]6(C)CC[C@H](O)[C@H](O)[C@@H]6[C@@H](O)C[C@]45O)C(C)C)[C@H](O)[C@H]3O)[C@H](O)[C@H]2OC)OC[C@H]1O` [MONILOSIDE G], 10 µg; to `CO[C@H]1[C@H](O[C@H]2CC[C@@]3(C)[C@H]([C@H]2O)[C@H](O)C[C@H]2[C@@H]4[C@H](O)C[C@H]([C@H](C)CC[C@H](O)C(C)C)[C@@]4(C)CC[C@@H]23)OC[C@@H](O)[C@@H]1O` [MONILOSIDE C], 3 µg.

The values above are taken from ChEMBL document CHEMBL1147334, “Starfish saponins, part 49. New cytotoxic steroidal glycosides from the starfish Fromia monilis” (J Nat Prod, 1993).
